# Calls of active or inactive are those of the source. The calls are words filed in the database; no cut-off is given here.
# What was measured:
# [1] = Induction of adipogenesis in human AT-MSC assessed as adiponectin secretion in IDX medium incubated for 5 days by ELISA; assay type: functional; settings: adipose tissue derived mesenchymal stem cell
# [2] = system: Adipose tissue derived mesenchymal stem cell; experiment: Induction of adipogenesis in human AT-MSC cells assessed as increase in lipid droplet at 30 uM in IDX medium incubated for 5 days by Oil Red O staining based inverted phase microscopy relative to IDX control; assay type: functional; settings: time 5.0 day
# [3] = Induction of adipogenesis in human AT-MSC assessed as adiponectin secretion at 30 uM in IDX medium incubated for 5 days by ELISA relative to IDX control; assay type: functional, Adipose tissue derived mesenchymal stem cell; settings: time 5 day
# [4] = system: Adipose tissue derived mesenchymal stem cell; experiment: Induction of adipogenesis in human AT-MSC cells assessed as increase in intracellular lipid accumulation at 30 uM in IDX medium incubated for 5 days by Oil Red O staining based inverted phase microscopy relative to IDX control; assay type: functional; settings: time 5.0 day
# [5] = Induction of adipogenesis in human AT-MSC assessed as adiponectin secretion at 30 uM in IDX medium incubated for 5 days by ELISA (reference value: 100 +/- 15 pg/ml); assay type: functional, Adipose tissue derived mesenchymal stem cell; settings: time 5 day
# [6] = Induction of adipogenesis in human AT-MSC assessed as adiponectin secretion at 300 uM in IDX medium incubated for 5 days by ELISA (reference value: 100 +/- 15 pg/ml); assay type: functional, Adipose tissue derived mesenchymal stem cell; settings: time 5 day
# NHEK [7] = experiment: Inhibition of UVB-induced MMP1 level in human NHEK cells at 1 uM incubated for 24 hrs by ELISA; assay type: functional, cell-based
# NHEK [8] = experiment: Inhibition of UVB-induced PGE2 level in human NHEK cells at 1 uM incubated for 24 hrs by ELISA; assay type: functional, cell-based
# NHEK [9] = experiment: Inhibition of UVB-induced MMP1 mRNA in human NHEK cells at 1 uM incubated for 24 hrs by qRT-PCR analysis; assay type: functional, cell-based
# NHEK [10] = experiment: Inhibition of UVB-induced PTGS2 mRNA in human NHEK cells at 1 uM incubated for 24 hrs by qRT-PCR analysis; assay type: functional, cell-based
# [11] = biological target: T1, PPAR alpha/gamma (Homo sapiens) (UniProt P37231+Q07869); experiment: Agonist activity at PPARalpha/PPARgamma in human AT-MSC cells assessed as upregulation of HMGCR mRNA at 10 uM incubated for 3 days by qRT-PCR analysis; assay type: cell-based; settings: Adipose tissue derived mesenchymal stem cell, filed as agonist, time 3.0 day
# [12] = biological target: T1, PPAR alpha/gamma (Homo sapiens); experiment: Agonist activity at PPARalpha/PPARgamma in human AT-MSC cells assessed as upregulation of FABP4 mRNA at 10 uM incubated for 3 days by qRT-PCR analysis; assay type: cell-based; settings: Adipose tissue derived mesenchymal stem cell, filed as agonist, time 3.0 day
# [13] = biological target: T1, PPAR alpha/gamma (Homo sapiens); experiment: Agonist activity at PPARalpha/PPARgamma in human AT-MSC cells assessed as upregulation of adiponectin mRNA at 10 uM incubated for 3 days by qRT-PCR analysis; assay type: cell-based; settings: Adipose tissue derived mesenchymal stem cell, filed as agonist, time 3.0 day
# NHEK [14] = experiment: Inhibition of UVB-induced MMP1 level in human NHEK cells at 10 uM incubated for 24 hrs by ELISA; assay type: functional, cell-based
# NHEK [15] = experiment: Inhibition of UVB-induced PGE2 level in human NHEK cells at 10 uM incubated for 24 hrs by ELISA; assay type: functional, cell-based
# NHEK [16] = experiment: Inhibition of UVB-induced MMP1 mRNA in human NHEK cells at 10 uM incubated for 24 hrs by qRT-PCR analysis; assay type: functional, cell-based
# NHEK [17] = experiment: Inhibition of UVB-induced PTGS2 mRNA in human NHEK cells at 10 uM incubated for 24 hrs by qRT-PCR analysis; assay type: functional, cell-based
# [18] = biological target: T1, PPAR alpha/gamma (Homo sapiens); experiment: Agonist activity at PPARalpha/PPARgamma in human NHEK cells assessed as upregulation of FASN mRNA at 10 uM incubated for 3 days by qRT-PCR analysis; assay type: cell-based; settings: time 3.0 day
# [19] = biological target: T1, PPAR alpha/gamma (Homo sapiens); experiment: Agonist activity at PPARalpha/PPARgamma in human NHEK cells assessed as upregulation of ACACB mRNA at 10 uM incubated for 3 days by qRT-PCR analysis; assay type: cell-based; settings: time 3.0 day
# [20] = biological target: T1, PPAR alpha/gamma (Homo sapiens); experiment: Agonist activity at PPARalpha/PPARgamma in human NHEK cells assessed as upregulation of HMGCR mRNA at 10 uM incubated for 3 days by qRT-PCR analysis; assay type: cell-based; settings: time 3.0 day
# [21] = biological target: T1, PPAR alpha/gamma (Homo sapiens); experiment: Agonist activity at PPARalpha/PPARgamma in human AT-MSC cells assessed as upregulation of FADS2 mRNA at 10 uM incubated for 3 days by qRT-PCR analysis; assay type: cell-based; settings: Adipose tissue derived mesenchymal stem cell, filed as agonist, time 3.0 day
# [22] = biological target: T1, PPAR alpha/gamma (Homo sapiens); experiment: Agonist activity at PPARalpha/PPARgamma in human AT-MSC cells assessed as upregulation of SCD1 mRNA at 10 uM incubated for 3 days by qRT-PCR analysis; assay type: cell-based; settings: Adipose tissue derived mesenchymal stem cell, filed as agonist, time 3.0 day
# [23] = biological target: T1, PPAR alpha/gamma (Homo sapiens); experiment: Agonist activity at PPARalpha/PPARgamma in human AT-MSC cells assessed as upregulation of FASN mRNA at 10 uM incubated for 3 days by qRT-PCR analysis; assay type: cell-based; settings: Adipose tissue derived mesenchymal stem cell, time 3.0 day
# [24] = biological target: T1, PPAR alpha/gamma (Homo sapiens); experiment: Agonist activity at PPARalpha/PPARgamma in human AT-MSC cells assessed as upregulation of ACACB mRNA at 10 uM incubated for 3 days by qRT-PCR analysis; assay type: cell-based; settings: Adipose tissue derived mesenchymal stem cell, time 3.0 day
# [25] = biological target: T1, PPAR alpha/gamma (Homo sapiens); experiment: Agonist activity at PPARalpha/PPARgamma in human AT-MSC cells assessed as upregulation of HMGCS2 mRNA at 10 uM incubated for 3 days by qRT-PCR analysis; assay type: cell-based; settings: Adipose tissue derived mesenchymal stem cell, filed as agonist, time 3.0 day
# [26] = biological target: T2, Peroxisome proliferator-activated receptor gamma (Homo sapiens) (UniProt P37231); experiment: (§1) Binding affinity to human recombinant PPARgamma by Cheng-Prusoff equation based competitive binding TR-FRET assay; settings: filed as agonist
# T2 sequence (whole entry): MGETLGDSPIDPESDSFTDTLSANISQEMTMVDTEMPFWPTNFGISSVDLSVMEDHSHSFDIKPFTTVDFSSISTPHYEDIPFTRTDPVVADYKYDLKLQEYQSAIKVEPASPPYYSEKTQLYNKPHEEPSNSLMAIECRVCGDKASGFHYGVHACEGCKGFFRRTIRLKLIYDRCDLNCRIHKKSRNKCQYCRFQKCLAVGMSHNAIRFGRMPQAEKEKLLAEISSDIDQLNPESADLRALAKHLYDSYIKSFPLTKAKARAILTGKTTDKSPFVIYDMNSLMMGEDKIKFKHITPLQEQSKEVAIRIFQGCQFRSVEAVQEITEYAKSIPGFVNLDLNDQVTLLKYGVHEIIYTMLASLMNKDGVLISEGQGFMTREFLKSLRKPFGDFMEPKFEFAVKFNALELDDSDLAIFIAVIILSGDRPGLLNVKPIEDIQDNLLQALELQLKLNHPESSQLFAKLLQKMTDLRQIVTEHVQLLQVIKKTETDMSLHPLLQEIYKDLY
# [27] = biological target: T3, Peroxisome proliferator-activated receptor gamma (Homo sapiens, UniProt P37231); experiment: as §1
# T3 sequence (P37231 whole entry): T2 sequence (whole entry)
# [28] = biological target: T4, Peroxisome proliferator-activated receptor alpha (Homo sapiens) (UniProt Q07869); experiment: (§2) Binding affinity to human recombinant PPARalpha by Cheng-Prusoff equation based competitive binding TR-FRET assay; settings: filed as agonist
# T4 sequence (whole entry): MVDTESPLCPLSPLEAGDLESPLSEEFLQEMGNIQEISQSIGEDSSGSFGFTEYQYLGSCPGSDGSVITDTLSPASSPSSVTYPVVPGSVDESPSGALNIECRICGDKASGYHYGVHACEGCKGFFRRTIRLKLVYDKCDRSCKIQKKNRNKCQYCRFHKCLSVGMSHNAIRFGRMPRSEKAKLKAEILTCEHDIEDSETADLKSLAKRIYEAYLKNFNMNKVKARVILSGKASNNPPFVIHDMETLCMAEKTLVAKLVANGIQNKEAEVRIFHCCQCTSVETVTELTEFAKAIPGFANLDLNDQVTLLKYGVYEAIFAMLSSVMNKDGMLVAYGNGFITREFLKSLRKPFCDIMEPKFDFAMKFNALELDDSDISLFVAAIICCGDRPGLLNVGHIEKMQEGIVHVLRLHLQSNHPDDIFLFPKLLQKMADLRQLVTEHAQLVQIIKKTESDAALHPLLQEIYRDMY
# [29] = biological target: T5, Peroxisome proliferator-activated receptor alpha (Homo sapiens, UniProt Q07869); experiment: as §2
# T5 sequence (Q07869 whole entry): T4 sequence (whole entry)
# [30] = biological target: T1, PPAR alpha/gamma (Homo sapiens); experiment: Agonist activity at PPARalpha/PPARgamma in human NHEK cells assessed as upregulation of SCD1 mRNA at 10 uM incubated for 3 days by qRT-PCR analysis; assay type: cell-based; settings: filed as agonist, time 3.0 day
# [31] = biological target: T1, PPAR alpha/gamma (Homo sapiens); experiment: Agonist activity at PPARalpha/PPARgamma in human NHEK cells assessed as upregulation of FADS1 mRNA at 10 uM incubated for 3 days by qRT-PCR analysis; assay type: cell-based; settings: filed as agonist, time 3.0 day
# [32] = biological target: T1, PPAR alpha/gamma (Homo sapiens); experiment: Agonist activity at PPARalpha/PPARgamma in human NHEK cells assessed as upregulation of HMGCS2 mRNA at 10 uM incubated for 3 days by qRT-PCR analysis; assay type: cell-based; settings: filed as agonist, time 3.0 day
# [33] = biological target: T1, PPAR alpha/gamma (Homo sapiens); experiment: Agonist activity at PPARalpha/PPARgamma in human NHEK cells assessed as upregulation of FADS2 mRNA at 10 uM incubated for 3 days by qRT-PCR analysis; assay type: cell-based; settings: filed as agonist, time 3.0 day
smiles,measurement,setting,value
COc1cccc(/C=C/C(=O)OCc2cc(=O)c(O)co2)c1,EC50,[1],36.6 µM
same,Activity,[2],Active
same,fold change (FC),[3],2.65
same,Activity,[4],Active
same,Activity,[5],265 pg/mL
COc1cc(OC)c(OC)cc1/C=C/C(=O)OCc1cc(=O)c(O)co1,Activity,[5],103 pg/mL
CC(=O)Oc1ccccc1C(=O)O [ASPIRIN],Activity,[6],197 pg/mL
COc1ccccc1/C=C/C(=O)OCc1cc(=O)c(O)co1,EC50,[1],20.6 µM
same,Activity,[2],Active
same,fold change (FC),[3],2.21
same,Activity,[4],Active
same,Activity,[5],221 pg/mL
COc1cc(/C=C/C(=O)OCc2cc(=O)c(O)co2)cc(OC)c1,Activity,[5],67 pg/mL
O=C(/C=C/c1ccc2c(c1)OCO2)OCc1cc(=O)c(O)co1,Activity,[5],164 pg/mL
Cc1c(C)c2c(c(C)c1O)CCC(C)(COc1ccc(CC3SC(=O)NC3=O)cc1)O2 (configuration not stated) [TROGLITAZONE],EC50,[1],0.86 µM
same,inhibition,NHEK [7],Active
same,inhibition,NHEK [8],inactive
same,inhibition,NHEK [9],Active
same,inhibition,NHEK [10],inactive
COc1ccc(/C=C/C(=O)OCc2cc(=O)c(O)co2)cc1OC,Activity,[5],120 pg/mL
COc1cc(/C=C/C(=O)OCc2cc(=O)c(O)co2)cc(OC)c1OC,Activity,[5],137 pg/mL
COc1ccc(/C=C/C(=O)OCc2cc(=O)c(O)co2)cc1,Activity,[5],138 pg/mL
COc1ccc(/C=C/C(=O)OCc2cc(=O)c(O)co2)c(OC)c1OC,Activity,[5],137 pg/mL
COc1cc(OC)c(/C=C/C(=O)OCc2cc(=O)c(O)co2)c(OC)c1,Activity,[5],87 pg/mL
Cc1cccc(Nc2cc(Cl)nc(SCC(=O)O)n2)c1C,Activity,[11],Active
same,Activity,[12],Active
same,Activity,[13],Active
same,inhibition,NHEK [14],Active
same,inhibition,NHEK [15],Active
same,inhibition,NHEK [16],Active
same,inhibition,NHEK [17],Active
same,Activity,[18],inactive
same,Activity,[19],inactive
same,Activity,[20],inactive
same,Activity,[21],Active
same,Activity,[22],Active
same,Activity,[23],inactive
same,Activity,[24],inactive
same,fold change (FC),[25],4.53
COc1cccc(/C=C/C(=O)OCc2cc(=O)c(O)co2)c1OC,Activity,[11],Active
same,Activity,[12],Active
same,Activity,[13],Active
same,Activity,[26],Dose-dependent effect
same,Ki,[27],6.7 µM
same,Activity,[28],Dose-dependent effect
same,Ki,[29],8 µM
same,EC50,[1],14.8 µM
same,Activity,[2],Active
same,fold change (FC),[3],2.81
same,Activity,[4],Active
same,Activity,[5],281 pg/mL
same,inhibition,NHEK [14],Active
same,inhibition,NHEK [15],Active
same,inhibition,NHEK [16],Active
same,inhibition,NHEK [17],Active
same,Activity,[18],inactive
same,Activity,[19],inactive
same,Activity,[20],inactive
same,Activity,[30],Active
same,Activity,[31],Active
same,Activity,[32],Active
same,Activity,[33],Active
same,Activity,[21],Active
same,Activity,[22],Active
same,Activity,[23]; filed as agonist,Active
same,Activity,[24]; filed as agonist,Active
same,Activity,[25],Active
